Source: patent publication US7901893B2, “NPC1L1 (NPC3) and methods of identifying ligands thereof” (Merck Sharp & Dohme Corp., priority 2004, dated 2011)

Assays:
cholesterol absorption = details: rat; cited from earlier work
rat NPC1L1 = rat NPC1L1 (Rattus norvegicus, UniProt Q6T3U3); assay: Effect of ezetimibe on cholesterol uptake, rat NPC1L1 transfected CHO cells; type: cell-based; design: expressed in transfected cells; pCDNA3); details: EZ (10 μM); for Cholesteryl Ester, dpm ± sem / Cholesteryl Ester, dpm/mg protein ± sem / Free Cholesterol, dpm ± sem / Free Cholesterol, dpm/mg protein ± sem: 4 Hour Pulse
Experimental: The effect of ezetimibe on the ability of CHO cells stably transfected with mouse or rat NPC1L1 or mouse SR-B1 to take up ^3H-labeled cholesterol was evaluated in pulse-chase experiments. One cDNA clone of mouse NPC1L1 (C7) and three clones of rat NPC1L1 (C7, C17 and C21) were evaluated. The ability of CHO cells stably transfected with mouse SR-B1, mouse NPC1L1 and rat NPC1L1 to take up labeled cholesterol, in the absence of ezetimibe, was also evaluated in the pulse-chase experiments. Data generated in these experiments are set forth, below, in Tables 4 and 5. Additionally, the quantity of total cholesterol taken up by transfected and untransfected CHO cells in the presence of four different unlabeled cholesterol concentrations was also evaluated.
Starve. The maintenance media (F12 HAMS, 1% Pen/Strep, 10% FCS) was removed and the cells were rinsed with serum-free HAMS media. The serum-free media was then replaced with 1 mL “starve” media (F12 HAMS, Pen/Strep, 5% lipoprotein deficient serum (LPDS). The cells were then starved overnight.
Pre-Incubation/pre-dose. Media was removed from all plates and replaced with fresh starve media and preincubated for 30 minutes. Half of the wells received media containing ezetimibe (stock soln in EtOH; final conc.=10 μM).
^3H-Cholesterol Pulse. The following was added directly to each well: • 0.5 μCi ^3H-cholesterol (˜1.1×10^6 dpm/well) in 50 μl of a mixed bile salt micelle • 4.8 mM sodium taurocholate (2.581 mg/mL) • 0.6 mM sodium oleate (0.183 mg/mL) • 0.25 mM cholesterol (0.1 mg/mL) • Dispersed in “starve” media by ultrasonic vibration • Final media cholesterol concentration=5 μg/mL
Labeled cholesterol pulse time points were 4, 12, 24 minutes and 4 hours. Triplicate wells were prepared for each treatment.
Wash. At designated times, media was aspirated and cells were washed once with Hobbs Buffer A (50 mM Tris, 0.9% NaCl, 0.2% bovine serum albumin (BSA), pH 7.4) and once with Hobbs Buffer B (50 mM Tris, 0.9% NaCl, pH 7.4 (no BSA)) at 37° C.
A. 4, 12, 24 minute time points: Cells were digested overnight with 0.2N NaOH, 2 mL/well, room temperature. One 1.5 mL aliquot was removed from each well, neutralized & counted for radioactivity by scintillation counting.
B. 4 hour time point: The digested cells were analyzed by thin-layer chromatography to determine the content of cholesterol ester in the cells.
Extracts were spotted onto TLC plates and run for 30 minutes in 2 ml hexane:isopropanol (3:2) mobile phase for 30 minutes, followed by a second run in 1 ml hexane:isopropanol (3:2) mobile phase for 15 minutes.
C. Protein determination of cell extracts. Plates containing a sample of the cell extracts were placed on orbital shaker at 120 rpm for indicated times and then extracts are pooled into 12×75 tubes. Plates were dried and NaOH (2 ml/well) added. The protein content of the samples were then determined. Two additional 50 μl aliquots from all wells were assayed for total protein by the Pierce micro BCA method. The quantity of labeled cholesterol observed in the cells was normalized to the quantity of protein in the cells.

[1] = test system: human, mouse or rat NPC1L1-CHO overexpressing membranes; assay: SPA assay; type: binding; details: 0.1 nM ligand
Experimental: For each well of a 96 well plate, a reaction mixture of 10 μg human, mouse or rat NPC1L1-CHO overexpressing membranes (Biosignal) and 200 μg/well YSi-WGA-SPA beads (Amersham) in 100 μl is prepared in NPC1L1 assay buffer (25 mM HEPES, pH 7.8, 2 mM CaCl2, 1 mM MgCl2, 125 mM NaCl, 0.1% BSA). A 0.4 nM stock of ligand-[^125I]-ezetimibe- is prepared in the NPC1L1 assay buffer. The above solutions are added to a 96-well assay plate as follows: 50 μl NPC1L1 assay buffer, 100 μl of reaction mixture, 50 μl of ligand stock (final ligand concentration is 0.1 nM). The assay plates are shaken for 5 minutes on a plate shaker, then incubated for 8 hours before cpm/well are determined in Microbeta Trilux counter (PerkinElmer).

Cholesteryl Ester, dpm ± sem (rat NPC1L1; rNPC1L1(C7)): 191 ± 54 dpm | Cholesteryl Ester, dpm/mg protein ± sem (rat NPC1L1; rNPC1L1(C7)): 1496 ± 403 dpm/mg protein | Free Cholesterol, dpm ± sem (rat NPC1L1; rNPC1L1(C7)): 70628 ± 212 dpm | Free Cholesterol, dpm/mg protein ± sem (rat NPC1L1; rNPC1L1(C7)): 556855 ± 7481 dpm/mg protein | Cholesteryl Ester, dpm ± sem (rat NPC1L1; rNPC1L1(C17)): 202 ± 10 dpm | Cholesteryl Ester, dpm/mg protein ± sem (rat NPC1L1; rNPC1L1(C17)): 1510 ± 62 dpm/mg protein | Free Cholesterol, dpm ± sem (rat NPC1L1; rNPC1L1(C17)): 71646 ± 446 dpm | Free Cholesterol, dpm/mg protein ± sem (rat NPC1L1; rNPC1L1(C17)): 536651 ± 7146 dpm/mg protein | Cholesteryl Ester, dpm ± sem (rat NPC1L1; rNPC1L1(C21)): 454 ± 33 dpm | Cholesteryl Ester, dpm/mg protein ± sem (rat NPC1L1; rNPC1L1(C21)): 3193 ± 265 dpm/mg protein | Free Cholesterol, dpm ± sem (rat NPC1L1; rNPC1L1(C21)): 69106 ± 711 dpm | Free Cholesterol, dpm/mg protein ± sem (rat NPC1L1; rNPC1L1(C21)): 485460 ± 4410 dpm/mg protein | Total Cholesterol, dpm ± sem (rat NPC1L1; 4 Min Pulse, rNPC1L1(C7)): 3268 ± 121 dpm | Total Cholesterol, dpm/mg protein ± sem (rat NPC1L1; 4 Min Pulse, rNPC1L1(C7)): 27285 ± 968 dpm/mg protein | Total Cholesterol, dpm ± sem (rat NPC1L1; 4 Min Pulse, rNPC1L1(C17)): 3676 ± 134 dpm | Total Cholesterol, dpm/mg protein ± sem (rat NPC1L1; 4 Min Pulse, rNPC1L1(C17)): 28675 ± 527 dpm/mg protein | Total Cholesterol, dpm ± sem (rat NPC1L1; 4 Min Pulse, rNPC1L1(C21)): 3769 ± 147 dpm | Total Cholesterol, dpm/mg protein ± sem (rat NPC1L1; 4 Min Pulse, rNPC1L1(C21)): 27098 ± 689 dpm/mg protein | Total Cholesterol, dpm ± sem (rat NPC1L1; 12 Min Pulse, rNPC1L1(C7)): 4664 ± 63 dpm | Total Cholesterol, dpm/mg protein ± sem (rat NPC1L1; 12 Min Pulse, rNPC1L1(C7)): 38581 ± 784 dpm/mg protein | Total Cholesterol, dpm ± sem (rat NPC1L1; 12 Min Pulse, rNPC1L1(C17)): 4579 ± 257 dpm | Total Cholesterol, dpm/mg protein ± sem (rat NPC1L1; 12 Min Pulse, rNPC1L1(C17)): 34063 ± 1619 dpm/mg protein | Total Cholesterol, dpm ± sem (rat NPC1L1; 12 Min Pulse, rNPC1L1(C21)): 4703 ± 231 dpm | Total Cholesterol, dpm/mg protein ± sem (rat NPC1L1; 12 Min Pulse, rNPC1L1(C21)): 33985 ± 1928 dpm/mg protein | Total Cholesterol, dpm ± sem (rat NPC1L1; 24 Min Pulse, rNPC1L1(C7)): 7829 ± 204 dpm | Total Cholesterol, dpm/mg protein ± sem (rat NPC1L1; 24 Min Pulse, rNPC1L1(C7)): 63482 ± 368 dpm/mg protein | Total Cholesterol, dpm ± sem (rat NPC1L1; 24 Min Pulse, rNPC1L1(C17)): 8192 ± 237 dpm | Total Cholesterol, dpm/mg protein ± sem (rat NPC1L1; 24 Min Pulse, rNPC1L1(C17)): 62279 ± 4352 dpm/mg protein | Total Cholesterol, dpm ± sem (rat NPC1L1; 24 Min Pulse, rNPC1L1(C21)): 8760 ± 293 dpm | Total Cholesterol, dpm/mg protein ± sem (rat NPC1L1; 24 Min Pulse, rNPC1L1(C21)): 66165 ± 2181 dpm/mg protein
SMILES: O=C1[C@H](CC[C@H](O)c2ccc(F)cc2)[C@@H](c2ccc(O)cc2)N1c1ccc(F)cc1 [ezetimibe]
potency (ED50) in vivo (cholesterol absorption): 0.03 mpk | binding to cell membranes expressing human, mouse or rat NPC1L1 [1]: binds
